Converted amounts (≈) assume the structure as drawn.
What was measured:
Format in all cases: cell-based
[1] = tested on: Enterococcus faecalis (EFA); test: MIC, two-fold agar dilution (CLSI), clinical isolates
Description: (§1) 1. The invention adopts the two-fold agar dilution method recommended by the operating procedure of antimicrobial susceptibility testing set by American Clinical and Laboratory Standards Institute (CLSI) to determine the Minimum Inhibitory Concentration (MIC) of the test samples against the tested strains.

[2] = tested on: Enterococcus faecium (EFM); test: as above
Description: as §1

[3] = tested on: methicillin-sensitive Staphylococcus epidermidis (MSSE); test: as above
Description: as §1

[4] = tested on: methicillin-resistant Staphylococcus epidermidis (MRSE); test: as above
Description: as §1

[5] = tested on: methicillin-sensitive Staphylococcus aureus (MSSA); test: as above
Description: as §1

[6] = tested on: Streptococcus pneoumoniae (SPN); test: as above
Description: as §1

[7] = tested on: Escherichia coli (including ESBLs, non-ESBLs); test: as above
Description: as §1

[8] = tested on: Moraxella catarrhalis (BCA); test: as above
Description: as §1

[9] = tested on: methicillin-resistant Staphylococcus aureus (MRSA); test: as above
Description: as §1

[10] = tested on: HCT-116 colorectal cancer cell line; test: CCK-8 proliferation inhibition; settings: Homo sapiens, HCT-116, 72 h, concentration of 30 μM; 72 hours; CCK-8; read-out: HCT116 inhibition rate/%
In short: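 Cells were plated overnight at 2000 cells/well, then compound in culture medium was added at a range of final concentrations. After 72 hours in a CO2 incubator, medium was replaced with 1:10 CCK-8 solution for the read-out.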

O=CN(O)C[C@@H](CC1CCCC1)C(=O)N1CC2(CC2)C[C@H]1C(=O)Nc1ncccc1F [Example 30, (S)-5-((R)-3-cyclopentyl-2-((N-hydroxyformamido)methyl)propionyl)-N-(3-fluoropyridin-2-yl)-5-spiro[2.4]heptane-6-carboxamide]
MIC (anti-bacterial activity) ([1]; strain EFA 15-1): 4 µg/mL (≈ 9.25 µM) | MIC (anti-bacterial activity) ([1]; strain EFA 15-2): 4 µg/mL (≈ 9.25 µM) | MIC (anti-bacterial activity) ([1]; strain EFA 15-3): 4 µg/mL (≈ 9.25 µM) | MIC (anti-bacterial activity) ([1]; strain EFA 15-4): 4 µg/mL (≈ 9.25 µM) | MIC (anti-bacterial activity) ([1]; strain EFA 15-5): 4 µg/mL (≈ 9.25 µM) | MIC (anti-bacterial activity) ([1]; strain EFA 15-6): 2 µg/mL (≈ 4.62 µM) | MIC (anti-bacterial activity) ([1]; strain EFA 15-9): 8 µg/mL (≈ 18.5 µM) | MIC (anti-bacterial activity) ([2]; strain EFM 15-1): 2 µg/mL (≈ 4.62 µM) | MIC (anti-bacterial activity) ([2]; strain EFM 15-2): 1 µg/mL (≈ 2.31 µM) | MIC (anti-bacterial activity) ([2]; strain EFM 15-3): 0.25 µg/mL (≈ 0.578 µM) | MIC (anti-bacterial activity) ([2]; strain EFM 15-4): 1 µg/mL (≈ 2.31 µM) | MIC (anti-bacterial activity) ([2]; strain EFM 15-5): 4 µg/mL (≈ 9.25 µM) | MIC (anti-bacterial activity) ([2]; strain EFM 15-6): 1 µg/mL (≈ 2.31 µM) | MIC (anti-bacterial activity) ([3]; strain MSSE 15-3): 2 µg/mL (≈ 4.62 µM) | MIC (anti-bacterial activity) ([3]; strain MSSE 15-4): 2 µg/mL (≈ 4.62 µM) | MIC (anti-bacterial activity) ([3]; strain MSSE 15-5): 2 µg/mL (≈ 4.62 µM) | MIC (anti-bacterial activity) ([3]; strain MSSE 15-6): 0.5 µg/mL (≈ 1.16 µM) | MIC (anti-bacterial activity) ([4]; strain MRSE 15-1): 0.5 µg/mL (≈ 1.16 µM) | MIC (anti-bacterial activity) ([4]; strain MRSE 15-2): 2 µg/mL (≈ 4.62 µM) | MIC (anti-bacterial activity) ([4]; strain MRSE 15-3): 2 µg/mL (≈ 4.62 µM) | MIC (anti-bacterial activity) ([4]; strain MRSE 15-7): 2 µg/mL (≈ 4.62 µM) | MIC (anti-bacterial activity) ([5]; strain MSSA 15-3): 0.5 µg/mL (≈ 1.16 µM) | MIC (anti-bacterial activity) ([5]; strain MSSA 15-4): 0.5 µg/mL (≈ 1.16 µM) | MIC (anti-bacterial activity) ([5]; strain MSSA 15-5): 0.5 µg/mL (≈ 1.16 µM) | MIC (anti-bacterial activity) ([5]; strain MSSA 15-6): 0.5 µg/mL (≈ 1.16 µM) | MIC (anti-bacterial activity) ([6]; strain SPN 16-2): 4 µg/mL (≈ 9.25 µM) | MIC (anti-bacterial activity) ([6]; strain SPN 16-4): 1 µg/mL (≈ 2.31 µM) | MIC (anti-bacterial activity) ([7]; strain ECO+ 15-1): 32 µg/mL (≈ 74 µM) | MIC (anti-bacterial activity) ([7]; strain ECO+ 15-2): > 32 µg/mL | MIC (anti-bacterial activity) ([7]; strain ECO+ 15-3): > 32 µg/mL | MIC (anti-bacterial activity) ([7]; strain ECO+ 15-4): > 32 µg/mL | MIC (anti-bacterial activity) ([7]; strain ECO− 15-1): > 32 µg/mL | MIC (anti-bacterial activity) ([7]; strain ECO− 15-2): > 32 µg/mL | MIC (anti-bacterial activity) ([7]; strain ECO− 15-3): > 32 µg/mL | MIC (anti-bacterial activity) ([7]; strain ECO− 15-4): > 32 µg/mL | Anti-bacterial activity (MIC), strain BCA 14-10 ([8]; clinical isolate BCA 14-10): 0.5 µg/mL | MIC (anti-bacterial activity) ([8]; strain BCA 14-1): 2 µg/mL (≈ 4.62 µM) | MIC (anti-bacterial activity) ([8]; strain BCA 14-4): 2 µg/mL (≈ 4.62 µM) | MIC (anti-bacterial activity) ([8]; strain BCA 14-5): 1 µg/mL (≈ 2.31 µM) | MIC (anti-bacterial activity) ([8]; strain BCA 14-6): 4 µg/mL (≈ 9.25 µM) | MIC (anti-bacterial activity) ([8]; strain BCA 14-7): 1 µg/mL (≈ 2.31 µM) | MIC (anti-bacterial activity) ([8]; strain BCA 14-8): 1 µg/mL (≈ 2.31 µM) | MIC (anti-bacterial activity) ([9]; strain MRSA 15-1): 0.5 µg/mL (≈ 1.16 µM) | MIC (anti-bacterial activity) ([9]; strain MRSA 15-2): 0.5 µg/mL (≈ 1.16 µM) | MIC (anti-bacterial activity) ([9]; strain MRSA 15-3): 0.5 µg/mL (≈ 1.16 µM) | MIC (anti-bacterial activity) ([9]; strain MRSA 15-4): 0.5 µg/mL (≈ 1.16 µM) | inhibition at 30 µM [10]: 17%

— patent publication US10738028B2, “Spiro three-membered ring, spiro five-membered ring peptide deformylase inhibitor and use thereof in antibacteria and anti-tumor” (priority 2016, dated 2020)
